In US11214594B2, “Antimicrobial peptide having synergistic antibacterial effect with antibiotics on multidrug resistant bacteria, and use thereof” (priority 2016, dated 2022):
Converted amounts (≈) assume the structure as drawn. Where a SMILES comes first, the peptide text is derived from it. [ ]: non-standard residue; d: D form.

Key:
MDREC 1229 = experiment: microbe, parasite or virus in culture; assay type: cell-based, Escherichia coli
Outline: (§1)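 Peptides were serially diluted twofold in Mueller-Hinton medium and combined 1:1 with bacterial suspensions prepared at 2×10^6 CFU. Readout was the minimal inhibitory concentration, i.e. the lowest concentration with no growth.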

E. coli [1] = experiment: microbe, parasite or virus in culture; assay type: cell-based, Escherichia coli; conditions: 16 h
Outline: as §1

S. typhimurium = experiment: microbe, parasite or virus in culture; assay type: cell-based, Salmonella typhimurium
Outline: as §1

MRSA 3126 = assay type: cell-based, Staphylococcus aureus; conditions: 3126
Outline: as §1

MRSA 3114 = assay type: cell-based, Staphylococcus aureus; conditions: 3114
Outline: as §1

B. subtilis = experiment: microbe, parasite or virus in culture; assay type: cell-based, Bacillus subtilis
Outline: as §1

MDRST 8007 = experiment: Minimal inhibitory concentration (MIC), single agent; assay type: cell-based, Salmonella typhimurium; conditions: agent alone
Outline: as §1

MDRAB 12035 = experiment: microbe, parasite or virus in culture; assay type: cell-based, Acinetobacter baumannii
Outline: as §1

A. baumannii = experiment: microbe, parasite or virus in culture; assay type: cell-based, Acinetobacter baumannii
Outline: as §1

S. aureus = experiment: microbe, parasite or virus in culture; assay type: cell-based, Staphylococcus aureus
Outline: as §1

MDRPA 2002 = assay type: cell-based, Pseudomonas aeruginosa
Outline: as §1

[2] = tested on: multi-drug resistant bacteria; experiment: MIC, summary statements for multi-drug resistant bacteria; assay type: cell-based
Outline: as §1

E. coli [3] = experiment: MIC of antibiotic during combined treatment with antimicrobial peptide; assay type: cell-based, Escherichia coli; conditions: for Antibiotic MIC, Erythromycin / Antibiotic MIC, Linezolid / Antibiotic MIC, Vancomycin: E. coli
Outline: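 First, antibiotic solution is diluted with MH medium; next, the dilution is dispensed into wells containing peptide; finally, the orientation is swapped and MIC of each mixture determined.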

SMILES: CC[C@H](C)[C@H](NC(=O)[C@H](CCCCN)NC(=O)[C@H](Cc1c[nH]c2ccccc12)NC(=O)[C@@H](N)CCCNC(=N)N)C(=O)N[C@@H](Cc1ccccc1)C(=O)N[C@@H](CCCCN)C(=O)N[C@@H](CCCCN)C(=O)N[C@H](C(=O)N[C@H](CCCCN)C(=O)N[C@@H](CCCCN)C(=O)N[C@@H](CC(C)C)C(=O)N[C@@H](CC(C)C)C(=O)N[C@@H](Cc1c[nH]cn1)C(=O)N[C@@H](CCC(=O)O)C(=O)N[C@@H](Cc1ccccc1)C(=O)N[C@@H](CCCCN)C(=O)N[C@@H](CCCCN)C(=O)N[C@@H](Cc1ccccc1)C(N)=O)[C@@H](C)CC [PapMA-19, RWK IFK KIk KLL HEF KKF-NH2] (H-RWKIFKKI[dK]KLLHEFKKF-NH2; N-terminus assumed)
- Minimal inhibitory concentration MIC (MDREC 1229): 32 µg/mL (≈ 13.2 µM)
- Peptide MIC, peptide alone (MDREC 1229): 32 µg/mL
- Minimal inhibitory concentration MIC (E. coli [1]): 32 µg/mL (≈ 13.2 µM)
- Minimal inhibitory concentration MIC (S. typhimurium): 32 µg/mL (≈ 13.2 µM)
- Minimal inhibitory concentration MIC (MRSA 3126): >128 µg/mL
- Minimal inhibitory concentration MIC (MRSA 3114): >128 µg/mL
- Minimal inhibitory concentration MIC (B. subtilis): >128 µg/mL
- Minimal inhibitory concentration MIC (MDRST 8007): 64 µg/mL (≈ 26.5 µM)
- Minimal inhibitory concentration MIC (MDRAB 12035): 32 µg/mL (≈ 13.2 µM)
- Peptide MIC, peptide alone (MDRAB 12035): 32 µg/mL
- Minimal inhibitory concentration MIC (A. baumannii): 16 µg/mL (≈ 6.62 µM)
- Peptide MIC, peptide alone (A. baumannii): 16 µg/mL
- Antibacterial activity relative to PapMA-1 (A. baumannii; A. baumannii and S. typhimurium): at least twice as high
- Minimal inhibitory concentration MIC (S. aureus): >128 µg/mL
- Minimal inhibitory concentration MIC (MDRPA 2002): 64 µg/mL (≈ 26.5 µM)
- Antibacterial activity relative to PapMA-1 [2]: twice to four times higher
- Synergistic effect of antibacterial activity with existing antibiotics compared with PapMA-1 (E. coli [3]; E. coli and MDREC1229): higher level than the PapMA-1 peptide
- Antibiotic MIC, Erythromycin (E. coli [3]; erythromycin combined with peptide at 1 μg/ml): 64 µg/mL
- Antibiotic MIC, Erythromycin (E. coli [3]; erythromycin combined with peptide at 2 μg/ml): 32 µg/mL
- Antibiotic MIC, Erythromycin (E. coli [3]; erythromycin combined with peptide at 4 μg/ml): 8 µg/mL
- Antibiotic MIC, Erythromycin (E. coli [3]; erythromycin combined with peptide at 6 μg/ml): 2 µg/mL
- Antibiotic MIC, Erythromycin (E. coli [3]; erythromycin combined with peptide at 8 μg/ml): 1 µg/mL
- Antibiotic MIC, Erythromycin (E. coli [3]; erythromycin combined with peptide at 16 μg/ml): 0.25 µg/mL
- Antibiotic MIC, Erythromycin (E. coli [3]; erythromycin combined with peptide at 32 μg/ml): 0 µg/mL
- Antibiotic MIC, Erythromycin (E. coli [3]; erythromycin combined with peptide at 64 μg/ml): 0 µg/mL
- Antibiotic MIC, Linezolid (E. coli [3]; linezolid combined with peptide at 1 μg/ml): >128 µg/mL
- Antibiotic MIC, Linezolid (E. coli [3]; linezolid combined with peptide at 2 μg/ml): 64 µg/mL
- Antibiotic MIC, Linezolid (E. coli [3]; linezolid combined with peptide at 4 μg/ml): 32 µg/mL
- Antibiotic MIC, Linezolid (E. coli [3]; linezolid combined with peptide at 6 μg/ml): 8 µg/mL
- Antibiotic MIC, Linezolid (E. coli [3]; linezolid combined with peptide at 8 μg/ml): 8 µg/mL
- Antibiotic MIC, Linezolid (E. coli [3]; linezolid combined with peptide at 16 μg/ml): 4 µg/mL
- Antibiotic MIC, Linezolid (E. coli [3]; linezolid combined with peptide at 32 μg/ml): 0 µg/mL
- Antibiotic MIC, Linezolid (E. coli [3]; linezolid combined with peptide at 64 μg/ml): 0 µg/mL
- Antibiotic MIC, Vancomycin (E. coli [3]; vancomycin combined with peptide at 1 μg/ml): >128 µg/mL
- Antibiotic MIC, Vancomycin (E. coli [3]; vancomycin combined with peptide at 2 μg/ml): 128 µg/mL
- Antibiotic MIC, Vancomycin (E. coli [3]; vancomycin combined with peptide at 4 μg/ml): 64 µg/mL
- Antibiotic MIC, Vancomycin (E. coli [3]; vancomycin combined with peptide at 6 μg/ml): 8 µg/mL
- Antibiotic MIC, Vancomycin (E. coli [3]; vancomycin combined with peptide at 8 μg/ml): 8 µg/mL
- Antibiotic MIC, Vancomycin (E. coli [3]; vancomycin combined with peptide at 16 μg/ml): 4 µg/mL
- Antibiotic MIC, Vancomycin (E. coli [3]; vancomycin combined with peptide at 32 μg/ml): 0 µg/mL
- Antibiotic MIC, Vancomycin (E. coli [3]; vancomycin combined with peptide at 64 μg/ml): 0 µg/mL
